ChEMBL document CHEMBL1129258, “Synthesis and structure-activity relationships of 2-pyridones: a novel series of potent DNA gyrase inhibitors as antibacterial agents” (J Med Chem, 1996)
Converted amounts (≈) assume the structure as drawn.

Key:
[1] = target: T1, DNA gyrase (Escherichia coli) (UniProt P0AES6+P0AES4); test: In vivo efficacy against Escherichia coli JUHL after oral administration; format: functional, organism-based; conditions: Escherichia coli K-12
[2] = target: T1, DNA gyrase (Escherichia coli); test: In vivo efficacy against Escherichia coli JUHL by subcutaneous administration; format: functional, organism-based; conditions: Escherichia coli K-12
[3] = target: T1, DNA gyrase (Escherichia coli); test: In vitro antibacterial activity against gram-negative organism […] ATCC 13048; format: functional; conditions: Enterobacter aerogenes
[4] = target: T1, DNA gyrase (Escherichia coli); test: In vitro antibacterial against gram-negative organism Escherichia coli JUHL; format: functional; conditions: Escherichia coli K-12
[5] = target: T1, DNA gyrase (Escherichia coli); test: In vitro antibacterial activity against gram-negative organism Klebsiella pneumoniae ATCC 8045; format: functional
[6] = target: T1, DNA gyrase (Escherichia coli); test: In vitro antibacterial activity against gram-negative organism Prov. stuartii CMX-640; format: functional; conditions: Providencia stuartii
[7] = target: T2, DNA gyrase (Staphylococcus aureus) (UniProt P0A0K8+P20831); test: In vitro antibacterial activity against gram-positive organism Staphylococcus aureus 1775; format: functional
T2 sequence (P0A0K8 2-644 limits assumed): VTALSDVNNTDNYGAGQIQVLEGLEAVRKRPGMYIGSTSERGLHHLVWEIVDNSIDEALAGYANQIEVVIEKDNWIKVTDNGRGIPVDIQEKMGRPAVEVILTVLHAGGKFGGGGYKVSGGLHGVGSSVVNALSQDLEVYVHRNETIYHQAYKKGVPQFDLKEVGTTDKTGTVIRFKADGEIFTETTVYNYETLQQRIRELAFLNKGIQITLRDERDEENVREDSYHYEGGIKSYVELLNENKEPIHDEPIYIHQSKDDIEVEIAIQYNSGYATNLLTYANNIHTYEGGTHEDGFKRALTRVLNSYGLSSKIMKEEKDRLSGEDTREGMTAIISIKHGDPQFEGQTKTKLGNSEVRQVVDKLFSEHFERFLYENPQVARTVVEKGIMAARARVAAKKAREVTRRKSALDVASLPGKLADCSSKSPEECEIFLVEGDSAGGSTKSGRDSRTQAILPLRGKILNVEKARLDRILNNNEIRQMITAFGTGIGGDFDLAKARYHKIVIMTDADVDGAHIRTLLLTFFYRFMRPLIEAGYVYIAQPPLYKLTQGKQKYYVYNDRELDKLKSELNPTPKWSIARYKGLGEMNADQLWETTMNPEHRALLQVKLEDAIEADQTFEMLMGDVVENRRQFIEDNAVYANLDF
T2 sequence (P20831 whole entry partner): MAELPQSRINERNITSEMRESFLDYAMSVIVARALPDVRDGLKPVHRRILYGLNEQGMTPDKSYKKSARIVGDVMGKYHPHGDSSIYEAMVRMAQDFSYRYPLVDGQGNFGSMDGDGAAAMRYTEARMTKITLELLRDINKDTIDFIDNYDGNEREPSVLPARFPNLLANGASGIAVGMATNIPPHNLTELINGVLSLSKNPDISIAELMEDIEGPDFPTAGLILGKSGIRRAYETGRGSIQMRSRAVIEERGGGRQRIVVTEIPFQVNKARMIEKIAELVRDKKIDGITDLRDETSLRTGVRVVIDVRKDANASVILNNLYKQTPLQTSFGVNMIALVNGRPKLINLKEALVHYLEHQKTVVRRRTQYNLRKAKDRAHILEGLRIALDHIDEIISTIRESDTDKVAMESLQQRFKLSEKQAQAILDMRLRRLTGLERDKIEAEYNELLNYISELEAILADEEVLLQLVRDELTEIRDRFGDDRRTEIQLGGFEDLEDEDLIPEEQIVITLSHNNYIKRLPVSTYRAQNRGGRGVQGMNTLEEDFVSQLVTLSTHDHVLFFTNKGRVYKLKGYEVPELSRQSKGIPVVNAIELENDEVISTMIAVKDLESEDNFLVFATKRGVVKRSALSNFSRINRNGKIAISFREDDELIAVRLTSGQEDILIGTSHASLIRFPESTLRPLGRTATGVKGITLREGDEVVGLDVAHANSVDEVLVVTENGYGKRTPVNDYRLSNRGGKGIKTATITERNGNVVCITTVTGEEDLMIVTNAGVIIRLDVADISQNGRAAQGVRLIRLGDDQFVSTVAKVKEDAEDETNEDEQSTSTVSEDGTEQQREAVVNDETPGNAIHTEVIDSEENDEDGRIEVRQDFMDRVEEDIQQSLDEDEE

[8] = target: T2, DNA gyrase (Staphylococcus aureus); test: In vitro antibacterial activity against gram-positive organism Staphylococcus aureus ATCC 6538p; format: functional
[9] = target: T2, DNA gyrase (Staphylococcus aureus); test: In vitro antibacterial activity against gram-positive organism Staphylococcus aureus NCTC-10649M; format: functional
[10] = target: T1, DNA gyrase (Escherichia coli); test: In vitro antibacterial activity against gram-positive organism Streptococcus bovis A-5169; format: functional; conditions: Streptococcus equinus
[11] = target: T2, DNA gyrase (Staphylococcus aureus); test: In vivo efficacy against Staphylococcus aureus NCTC-10649M after oral administration; format: functional, organism-based
[12] = target: T2, DNA gyrase (Staphylococcus aureus); test: In vivo efficacy against Staphylococcus aureus NCTC-10649M after subcutaneous administration; format: functional, organism-based
[13] = target: T1, DNA gyrase (Escherichia coli); test: In vitro antibacterial activity against gram-positive organism Enterococcus faecium ATCC 8043; format: functional
[14] = In vitro antibacterial activity against gram-negative organism Pseudomonas aeruginosa 5007; format: functional
[15] = In vitro antibacterial activity against gram-negative organism Pseudomonas aeruginosa DPHD-2862; format: functional; conditions: Pseudomonas aeruginosa; read-out: MIC
[16] = test system: Streptococcus pyogenes; test: In vitro antibacterial activity against gram-positive organism Streptococcus pyogenes EES61; format: functional; conditions: Streptococcus pyogenes; read-out: MIC
[17] = target: T1, DNA gyrase (Escherichia coli); conditions: Escherichia coli K-12
Description: Concentration which causes 50% of the gyrase (Escherichia coli H560)-mediated maximal DNA cleavage.

[18] = Pseudomonas aeruginosa, read-out: MIC

| Structure (SMILES) | ED50 [1] | ED50 [2] | MIC [3] | MIC [4] | MIC [5] | MIC [6] | MIC [7] | MIC [8] | MIC [9] | MIC [10] | ED50 [11] | ED50 [12] | MIC [13] | MIC [14, 18] | MIC [15] | MIC [16] | CC50 [17] | MIC [14] |
| --- | --- | --- | --- | --- | --- | --- | --- | --- | --- | --- | --- | --- | --- | --- | --- | --- | --- | --- |
| Cc1c(N2C[C@@H]3CCN[C@@H]3C2)c(F)cn2c(=O)c(C(=O)O)cc(C3CC3)c12 (stereo in doubt; (S,S)45o) | > 10 mg/kg | 0.8 mg/kg | 0.05 µg/mL (≈ 0.135 µM) | 0.02 µg/mL (≈ 0.0538 µM) | 0.01 µg/mL (≈ 0.0269 µM) | 0.39 µg/mL (≈ 1.05 µM) | 3.1 µg/mL (≈ 8.35 µM) | 0.05 µg/mL (≈ 0.135 µM) | 0.05 µg/mL (≈ 0.135 µM) | 0.1 µg/mL (≈ 0.269 µM) | 5 mg/kg | 1.5 mg/kg | 0.1 µg/mL (≈ 0.269 µM) |  |  |  |  |  |
| CC(NC(=O)C(C)N[C@H]1C[C@H](C)N(c2nc3c(-c4ccc(F)cc4F)cc(C(=O)O)c(=O)n3cc2F)C1)C(=O)O (stereo partly drawn) | 26.7 mg/kg | 3.3 mg/kg |  |  |  |  |  |  |  |  | 25.3 mg/kg | 11.4 mg/kg |  |  |  |  |  |  |
| Cc1c(N2C[C@H]3CCC[C@@H](N)[C@H]3C2)c(F)cn2c(=O)c(C(=O)O)cc(C3CC3)c12 |  |  | 0.1 µg/mL (≈ 0.25 µM) | 0.01 µg/mL (≈ 0.025 µM) | 0.02 µg/mL (≈ 0.0501 µM) | 0.39 µg/mL (≈ 0.976 µM) | 0.1 µg/mL (≈ 0.25 µM) | 0.005 µg/mL (≈ 0.0125 µM) | 0.005 µg/mL (≈ 0.0125 µM) | 0.002 µg/mL (≈ 0.00501 µM) | 1.4 mg/kg | 0.3 mg/kg | 0.02 µg/mL (≈ 0.0501 µM) | 0.39 µg/mL (≈ 0.976 µM) | 6.2 µg/mL (≈ 15.5 µM) | 0.005 µg/mL (≈ 0.0125 µM) |  |  |
| Cc1c(N2CC[C@@]3(C[C@H]3N)C2)c(F)cn2c(=O)c(C(=O)O)cc(C3CC3)c12 | 12.8 mg/kg | 1.9 mg/kg | 0.05 µg/mL (≈ 0.135 µM) | 0.01 µg/mL (≈ 0.0269 µM) | 0.01 µg/mL (≈ 0.0269 µM) | 0.78 µg/mL (≈ 2.1 µM) | 0.39 µg/mL (≈ 1.05 µM) | 0.005 µg/mL (≈ 0.0135 µM) | 0.01 µg/mL (≈ 0.0269 µM) |  | 6.3 mg/kg | 1.5 mg/kg | 0.05 µg/mL (≈ 0.135 µM) | 0.39 µg/mL (≈ 1.05 µM) | 6.2 µg/mL (≈ 16.7 µM) | 0.02 µg/mL (≈ 0.0538 µM) |  |  |
| NC1CCN(c2c(F)cn3c(=O)c(C(=O)O)cc(C4CC4)c3c2F)C1 (stereo not drawn) |  |  | 0.02 µg/mL (≈ 0.0573 µM) | 0.01 µg/mL (≈ 0.0286 µM) | 0.01 µg/mL (≈ 0.0286 µM) | 3.1 µg/mL (≈ 8.87 µM) | 6.2 µg/mL (≈ 17.7 µM) | 0.1 µg/mL (≈ 0.286 µM) | 0.1 µg/mL (≈ 0.286 µM) | 0.78 µg/mL (≈ 2.23 µM) | 14.6 mg/kg | 2.9 mg/kg | 0.78 µg/mL (≈ 2.23 µM) | 0.39 µg/mL (≈ 1.12 µM) | 6.2 µg/mL (≈ 17.7 µM) | 0.78 µg/mL (≈ 2.23 µM) | 2.2 µg/mL (≈ 6.3 µM) |  |
| Cc1c(N2C[C@H]3CCC[C@H](N)[C@H]3C2)c(F)cn2c(=O)c(C(=O)O)cc(C3CC3)c12 |  |  | 0.1 µg/mL (≈ 0.25 µM) | 0.02 µg/mL (≈ 0.0501 µM) | 0.02 µg/mL (≈ 0.0501 µM) | 0.78 µg/mL (≈ 1.95 µM) | 0.39 µg/mL (≈ 0.976 µM) | 0.005 µg/mL (≈ 0.0125 µM) | 0.005 µg/mL (≈ 0.0125 µM) | 0.01 µg/mL (≈ 0.025 µM) |  |  | 0.02 µg/mL (≈ 0.0501 µM) |  | 6.2 µg/mL (≈ 15.5 µM) | 0.02 µg/mL (≈ 0.0501 µM) | 0.3 µg/mL (≈ 0.751 µM) | 0.39 pug ml-1 |
| COc1c(N2CCC(N)C2)c(F)cn2c(=O)c(C(=O)O)cc(C3CC3)c12 (stereo not drawn) |  |  | 0.05 µg/mL (≈ 0.138 µM) | 0.02 µg/mL (≈ 0.0553 µM) | 0.01 µg/mL (≈ 0.0277 µM) | 1.56 µg/mL (≈ 4.32 µM) | 3.1 µg/mL (≈ 8.58 µM) | 0.05 µg/mL (≈ 0.138 µM) | 0.05 µg/mL (≈ 0.138 µM) | 0.39 µg/mL (≈ 1.08 µM) |  |  | 0.2 µg/mL (≈ 0.553 µM) | 0.39 µg/mL (≈ 1.08 µM) | 3.1 µg/mL (≈ 8.58 µM) | 0.2 µg/mL (≈ 0.553 µM) | 0.3 µg/mL (≈ 0.83 µM) |  |
| CC(=O)N[C@H]1C[C@H](C)N(c2nc3c(-c4ccc(F)cc4F)cc(C(=O)O)c(=O)n3cc2F)C1 |  |  | 3.1 µg/mL (≈ 6.73 µM) | 0.78 µg/mL (≈ 1.69 µM) | 0.39 µg/mL (≈ 0.847 µM) | 25 µg/mL (≈ 54.3 µM) | 25 µg/mL (≈ 54.3 µM) | 0.1 µg/mL (≈ 0.217 µM) | 0.2 µg/mL (≈ 0.434 µM) | 3.1 µg/mL (≈ 6.73 µM) |  |  | 1.56 µg/mL (≈ 3.39 µM) | 3.1 µg/mL (≈ 6.73 µM) | > 100 µg/mL | 0.78 µg/mL (≈ 1.69 µM) | 1.3 µg/mL (≈ 2.82 µM) |  |
| Cc1c(N2CCC(c3ccccn3)C2)c(F)cn2c(=O)c(C(=O)O)cc(C3CC3)c12 (stereo not drawn) |  |  | 0.78 µg/mL (≈ 1.91 µM) | 0.05 µg/mL (≈ 0.123 µM) | 0.05 µg/mL (≈ 0.123 µM) | 1.56 µg/mL (≈ 3.83 µM) | 0.2 µg/mL (≈ 0.491 µM) | 0.01 µg/mL (≈ 0.0245 µM) | 0.02 µg/mL (≈ 0.0491 µM) | 0.05 µg/mL (≈ 0.123 µM) |  |  | 0.05 µg/mL (≈ 0.123 µM) | 0.78 µg/mL (≈ 1.91 µM) | 12.5 µg/mL (≈ 30.7 µM) | 0.05 µg/mL (≈ 0.123 µM) | 2.6 µg/mL (≈ 6.38 µM) |  |
